# Source: patent US10590460B2, “Selective enrichment medium for carbapenem-resistant bacteria” (priority 2008, dated 2020)
# How the values were obtained:
# [1] = system: carbapenem-sensitive flora; experiment: Culture of carbapenem-sensitive or carbapenem-resistant strains on CHROMagar Orientation medium with a carbapenem; format: cell-based
# Method: Different strains of carbapenem-sensitive bacteria or carbapenem-resistant bacteria were cultured under three sets of conditions: • group 1: CHROMagar Orientation medium • group 2: CHROMagar Orientation medium in the presence of meropenem (0.065; 0.25; 1 or 4 mg/L); and • group 3: CHROMagar Orientation medium in the presence of imipenem (MSD, TIENAM (includes 50% imipenem) 0.0325; 0.125; 0.5 or 2 mg/L of imipenem)
# Different strains of carbapenem-sensitive bacteria or carbapenem-resistant bacteria were cultured under two sets of conditions: • group 1: CHROMagar Orientation medium; and • group 2: CHROMagar Orientation medium in the presence of ertapenem (INVAZ; 0.0325; 0.065; 0.125; 0.25; 0.5 or 2 mg/L).
# [2] = system: carbapenem-sensitive bacteria; experiment: Ageing tests on meropenem versus imipenem in CHROMagar Orientation medium; format: cell-based
# Method: (§1) Different strains of carbapenem-sensitive bacteria or carbapenem-resistant bacteria were cultured under three different sets of conditions and with different spreading concentrations: • group 1: CHROMagar Orientation medium • group 2: CHROMagar Orientation medium in the presence of imipenem (MSD, TIENAM (includes 50% imipenem) 1 or 2 mg/L imipenem), and • group 3: CHROMagar Orientation medium in the presence of meropenem (0.12 or 0.25 mg/L).
# (§2) Culture plates were then incubated at 37° C. and analysed regularly to establish the growth or absence of growth of bacteria.
# [3] = format: physicochemical
# Method: as §1, §2
stability in an agar medium (duration) [3],stability in the used culture medium compared to imipenem [3],stability in an agar medium (in words) [3],Compound,minimum concentration of meropenem relative to necessary minimum concentration of imipenem [1],minimum concentration to eliminate carbapenem-sensitive flora [1],"inhibition of the growth of carbapenem-sensitive bacteria ([2]; 0.25 mg/L meropenem, 55 days in culture, 37° C.)","effectiveness in terms of inhibition compared to imipenem ([2]; ageing test, CHROMagar Orientation medium)",minimum concentration needed to eliminate carbapenem-sensitive flora (in words) ([1]; ertapenem 0.0325-2 mg/L tested)
2 to 4 months,much higher stability,,C[C@@H](O)[C@H]1C(=O)N2C(C(=O)O)=C(S[C@@H]3CN[C@H](C(=O)N(C)C)C3)[C@H](C)[C@H]12 [meropenem],about ten times lower,0.25 mg/L,always higher than inhibition obtained at a concentration of 0.12 mg/L of meropenem after 36 days in culture,much more effective than imipenem,
2 to 4 months,,good,C[C@@H](O)[C@H]1C(=O)N2C(C(=O)O)=C(S[C@@H]3CN[C@H](C(=O)Nc4cccc(C(=O)O)c4)C3)[C@H](C)[C@H]12 [ertapenem],,,,,falls between that of meropenem and imipenem
,,,C[C@@H](O)[C@H]1C(=O)N2C(C(=O)O)=C(SCCN=CN)C[C@H]12 [imipenem],,1 mg/L,,,
